Results: publication PMC11242853, “The Antimicrobial Activity of Human Defensins at Physiological Non-Permeabilizing Concentrations Is Caused by the Inhibition of the Plasma Membrane H^+-ATPases” (International Journal of Molecular Sciences, 2024)
Where no end group is shown, it is not given here.

Key:
[1] = tested on: Pseudomonas aeruginosa PAO1; assay: Antimicrobial spread-plate (CFU) killing assay, P. aeruginosa; type: cell-based; details: for non-permeabilizing inhibitory concentration (NPIC), P. aeruginosa: antimicrobial concentration (≤10% viable cells) that permeabilized ≤10% of cells, 10^6 cells/mL, Tris buffer pH 7.4, 90 min at 37 °C, from Figure 1 data, duplicates of three experiments
Protocol: (§1) To determine whether the above microbicidal concentrations exert a permeabilizing effect on fungal and bacterial membranes, the influx of the fluorescent nucleic acid-binding dye propidium iodide (PI) in cells incubated with the peptides was assessed. In cells, dye uptake reflects membrane permeabilization, as PI itself cannot permeate through an intact phospholipid bilayer. […] To select an antimicrobial but non-permeabilizing concentration of each peptide for further assays, we defined as a non-permeabilizing inhibitory concentration (NPIC) the antimicrobial inhibitory concentration (≤10% viable cells) that permeabilized ≤ 10% of cells incubated (90 min at 37 °C) in buffer solution.
(§2) Microbial susceptibility to the peptides was determined in a spread-plate assay as described previously. Briefly, cell suspensions (10^6 cells/mL) in Tris buffer (10 mM Tris-HCl, pH 7.4) were incubated for 90 min at 37 °C with 2-fold serial peptide dilutions. Peptide concentrations ranged from 0 to 2 μM. After incubation, the number of viable cells was determined by plating aliquots (100 μL) in duplicate on plates (SDA for C. albicans, TSA for P. aeruginosa, and M17G agarified medium for L. lactis) that had been dried for 30 min at room temperature in a laminar flow hood. Plates were incubated for 24–48 h at 30 °C (C. albicans and L. lactis) or 24 h at 37 °C (P. aeruginosa). Dilutions yielding 50–200 colonies were counted. Cell viability values, expressed as colony-forming units (CFUs), were calculated relative to the incubation without added peptides and represent the means ± standard deviation (SD) from duplicates of three independent experiments. For inhibition assays, unless otherwise noted, cell suspensions were preincubated (15 min at 37 °C) with the appropriate inhibitor prior to the addition of peptides, but the inhibitor was present throughout the incubation period with the peptide (90 min at 37 °C). Other specific experimental conditions are described as appropriate. In some experiments, the concentrations of human lactoferrin against C. albicans (5 μM), P. aeruginosa (1 μM), and L. lactis (0.065 μM) were used in the control assays. In various viability assays, BM2 peptide (0.25 μM), CCCP (50 μM), colistin (4 μg/mL), nystatin (50 μM), oligomycin A (16 μg/mL), piericidin A (32 μM), and TEA (10 mM) were used.

C. albicans cells = assay: Oxygen consumption measurement (polarographic), C. albicans; type: cell-based, Candida albicans; details: after 30 min; defensins 2 x NPIC, human lactoferrin 20 μM, piericidin A 32 µM; preincubated 15 min at 37 °C; untreated cells 94% ± 2%; means ± SD, three experiments
Protocol: (§3) Oxygen consumption by C. albicans and P. aeruginosa cells was determined by polarographically using a biological oxygen monitor (dual digital-model 20; Rank Brothers Ltd., Cambridge, UK) at 25 °C. The apparatus consisted of a twin water-jacketed closed sample chamber, which enabled a control experiment to be conducted concurrently. The cells were grown to mid-log phase in SDB (C. albicans) or TSB (P. aeruginosa), washed twice in Tris buffer, and resuspended in the same buffer. Cell suspensions (approximately 10^7 cells/mL) were preincubated with defensins (2 x NPIC), human lactoferrin (20 μM), or piericidin A (32 μM) for 15 min at 37 °C. Oxygen consumption was recorded at 5-min intervals for a period of 30 min. Three independent experiments were performed, and the data are means ± SD.

Pma1p H^+-ATPase = details: Table 2; no reference given
Protocol: A whole-cell proton transport assay was used to evaluate the possible inhibition of the fungal Pma1p H^+-ATPase by defensins.
To measure proton pumping from Pma1p H^+-ATPase activity, a glucose-induced acid extrusion assay was performed as previously described with modifications. Briefly, cultures of C. albicans cells were grown to mid-log phase in SDB medium and washed twice in 100 mM Tris-HCl (pH 8.0). The cells were then resuspended in 50 mM KCl and maintained for 18 h at 4 °C to reduce metabolic activity to a minimum (starvation conditions). To determine external acidification, starved cells (approximately 10^7 cells/mL) were incubated for 15 min at 37 °C in the presence or absence of the defensins (2 x NPIC). Cells incubated with 20 µM human lactoferrin or 0.5 µM BM2 peptide were used as positive controls. The initial pH of the cell suspension was adjusted to approximately pH 6.8 with HCl, and glucose (final concentration of 2.5 mM) was immediately added to the cell suspension. The pH of the medium was recorded at 5-min intervals for 20 min using a SevenMulti S50-K pH meter (Mettler-Toledo, Greifensee, Switzerland) with a calibrated electrode (InLab 413, Mettler-Toledo) under constant stirring. Each experiment was repeated three times in an independent manner.

P. aeruginosa cells = assay: Oxygen consumption measurement (polarographic), P. aeruginosa; type: cell-based, Pseudomonas aeruginosa; details: after 30 min; defensins 2 x NPIC, human lactoferrin 20 μM, piericidin A 32 µM; preincubated 15 min at 37 °C; untreated cells 83% ± 2%; means ± SD, three experiments
Protocol: as §3

[2] = tested on: Candida albicans ATCC 10231; assay: Antimicrobial spread-plate (CFU) killing assay, C. albicans; type: cell-based; details: for candidacidal activity (comparison among defensins): 0–2 μM, 90 min at 37 °C, Tris buffer; for effect of high extracellular K+ on candidacidal activity: 50 mM KCl, defensins at NPIC, hLf 5 μM, BM2 0.25 μM, nystatin 50 μM; for non-permeabilizing inhibitory concentration (NPIC), C. albicans: antimicrobial concentration (≤10% viable cells) that permeabilized ≤10% of cells, 10^6 cells/mL, Tris buffer pH 7.4, 90 min at 37 °C, from Figure 1 data, duplicates of three experiments; for effect of piericidin A on candidacidal activity: cells preincubated 15 min at 37 °C with 32 µM piericidin A, then peptides (NPIC) 90 min; for effect of oligomycin A on candidacidal activity: preincubated 15 min at 37 °C with 16 μg/mL oligomycin A, peptides at NPIC
Protocol: as §1, §2

Row | Substance | non-permeabilizing inhibitory concentration (NPIC), P. aeruginosa [1] [µM] | effect of piericidin A on bactericidal activity, P. aeruginosa ([1]; cells pretreated with 32 µM piericidin A, defensins at NPIC) | effect of CCCP on bactericidal activity, P. aeruginosa ([1]; preincubated 15 min at 37 °C with 50 µM CCCP at pH 7.4, peptides at NPIC) | oxygen consumption percentage of C. albicans (C. albicans cells) | Inhibition of H^+-extrusion (yeast) (Pma1p H^+-ATPase) | O2 consumption of P. aeruginosa (P. aeruginosa cells) | candidacidal activity (comparison among defensins) [2] | effect of high extracellular K+ on candidacidal activity [2] | Cell death inhibitors, extracellular: Tok1p inhibitors (TEA) ([2]; Table 2, no reference given) | Cell death inhibitors, intracellular: Oligomycin A ([2]; Table 2, no reference given) | Cell death inhibitors, intracellular: Piericidin A ([2]; Table 2, no reference given, tested on C. albicans and P. aeruginosa in this study) | non-permeabilizing inhibitory concentration (NPIC), C. albicans [2] [µM] | effect of piericidin A on candidacidal activity [2] | effect of oligomycin A on candidacidal activity [2] | pseudomonacidal activity (comparison among defensins) ([1]; 0–2 μM, 90 min at 37 °C, Tris buffer)
1 | HNP-1: human α-defensin, UniProtKB P59665, 30 amino acids, three disulfide bonds; purchased from PeptaNova | 0.5 | significantly (p < 0.001) protected | significant reduction | 87% ± 4% | Yes | 72% ± 2% | highest candidacidal activity | significantly protected | Yes | Yes | Yes | 0.25 | significantly less susceptible | significantly (p < 0.001) less susceptible | –
2 | HNP-4: human α-defensin, UniProtKB P12838, 33 amino acids; purchased from PeptaNova (VCSCRLVFCRRTELRVGNCLIGGVSFTYCCTRV; ends and bridges not checked; cysteine pairing not given here; UniProt P12838 64-96, looked up) | 0.25 | – | – | 81% ± 3% | Yes | 75% ± 2% | – | significantly protected | Yes [69] ND Yes ND ND ND ND ND ND | – | – | 0.25 | significantly less susceptible | significantly (p < 0.001) less susceptible | –
3 | hBD-3: human β-defensin, UniProtKB Q5U7J2, 45 amino acids; purchased from PeptaNova (GIINTLQKYYCRVRGGRCAVLSCLPKEEQIGKCSTRGRKCCRRKK; Beta-defensin 103; UniProt P81534 23-67, looked up) | 0.25 | – | – | 79% ± 4% | Yes | 82% ± 4% | highest candidacidal activity | significantly protected | Yes | – | – | 0.125 | significantly less susceptible | significantly (p < 0.001) less susceptible | most potent pseudomonacidal activity
